From patent publication US20250032573A1, “IMMUNITY-ENHANCING PEPTIDE ANALOGS AND USES THEREOF” (RESEARCH & BUSINESS FOUNDATION SUNGKYUNKWAN UNIVERSITY, priority 2023, published 2025) come the findings set out here.

For series [1], the target named is FPR1 (Homo sapiens, UniProt P21462). The series can be described thus: cell-based. Particulars: for increase in intracellular calcium ions through activation of FPR1 (in words): FPR1-expressing RBL-2H3 cell line. How it is done: To investigate whether activation of FPR1, which is important in regulating the activity of innate immune cells, is induced by the WKYMVm peptide analogs, changes in calcium ions were measured in RBL-2H3 cell line, a type of mast cell that artificially expressed FPR1. […] On the other hand, an increase in intracellular calcium ions by WKYMVβm (V is a β-amino acid) through activation of FPR1 was not observed.
(In general: A change in cytosolic calcium serves as a functional read-out for many receptors and channels.)

The target in series [2] is FPR2 (Homo sapiens, UniProt P25090). The series can be described thus: cell-based. The conditions noted are these: for increase in intracellular calcium ions through activation of FPR2 (in words): FPR2-expressing RBL-2H3 cell line. How it is done: To investigate whether activation of FPR2 is induced by the WKYMVm peptide analogs, changes in calcium ions were measured in RBL-2H3 cell line that artificially expressed FPR2.

For series [3], the system named is neutrophils. The series can be described thus: Superoxide anion (ROS) production in neutrophils. The format is cell-based. The method, then: The effect of superoxide anion production in neutrophils by the peptoid-comprising analogs in which a peptoid residue was substituted for K, Y, and M in the structure of WKYMVm was measured.
The test system of series [4] is neutrophils. Nature of the series: Degranulation activity of neutrophils (beta-hexosaminidase activity). It counts as cell-based. How it is done:
The degranulation activity of neutrophils by the analogs in which each amino acid in the structure of WKYMVm was substituted with a β-amino acid was compared and analyzed by measuring beta-hexosaminidase activity.
The degranulation activity of neutrophils by the peptoid-containing analogs in which a peptoid residue was substituted for K, Y, and M in the structure of WKYMVm was measured.

Series [5] relates to neutrophils. Nature of the series: Neutrophil chemotaxis assay using a Boyden chamber. The format is cell-based. The conditions noted are these: for chemotactic migration of neutrophils: from 1 nM or 10 nM to 1 μM. The method, then:
To investigate the effect of the WKYMVm peptide analogs on the regulation of immune cell mobility, which a representative function of FPR, a chemotaxis assay was performed using a Boyden chamber.
To measure the in vitro innate immune activity of four peptides comprising one non-natural β^3-amino acid residue, the effect of enhancing neutrophil mobility was measured.

Series [6] is described as follows: Degradation half-life in human liver S9 fraction (HPLC). The conditions noted are these: human liver S9 fraction, 37° C. The format is in vitro ADME. How it is done:
To measure the ex vivo stability of the eight analogs comprising a β^3-amino acid residue, the degradation half-life of each analog was measured in a human liver S9 fraction. The degradation half-life was measured by culturing the peptide and serum together at 37° C. and measuring the degree to which the compound was reduced using HPLC at each hour.
The ex vivo stability of the analogs to which a peptoid residue was introduced was measured using the same method as the stability measurement method for the analogs comprising a β-amino acid residue. […] On the other hand, it was confirmed that K peptoid, KY peptoid, and KM peptoid had very high stability so that more than half of them was not degraded even after 24 hours (FIG. 17).

Series [7] has as its system neutrophils.

Molecules are shown by their SMILES.

Sequence of FPR2 (P25090 whole entry): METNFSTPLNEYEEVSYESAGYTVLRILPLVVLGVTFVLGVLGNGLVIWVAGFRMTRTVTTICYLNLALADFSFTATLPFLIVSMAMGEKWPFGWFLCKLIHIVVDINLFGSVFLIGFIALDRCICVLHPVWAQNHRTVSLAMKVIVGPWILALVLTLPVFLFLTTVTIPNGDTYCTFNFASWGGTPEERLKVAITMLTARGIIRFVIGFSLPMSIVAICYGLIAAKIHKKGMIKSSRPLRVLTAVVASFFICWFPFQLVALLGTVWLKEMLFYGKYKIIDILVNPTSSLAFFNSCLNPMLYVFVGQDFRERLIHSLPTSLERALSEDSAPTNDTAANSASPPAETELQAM
Sequence of FPR1 (P21462 whole entry): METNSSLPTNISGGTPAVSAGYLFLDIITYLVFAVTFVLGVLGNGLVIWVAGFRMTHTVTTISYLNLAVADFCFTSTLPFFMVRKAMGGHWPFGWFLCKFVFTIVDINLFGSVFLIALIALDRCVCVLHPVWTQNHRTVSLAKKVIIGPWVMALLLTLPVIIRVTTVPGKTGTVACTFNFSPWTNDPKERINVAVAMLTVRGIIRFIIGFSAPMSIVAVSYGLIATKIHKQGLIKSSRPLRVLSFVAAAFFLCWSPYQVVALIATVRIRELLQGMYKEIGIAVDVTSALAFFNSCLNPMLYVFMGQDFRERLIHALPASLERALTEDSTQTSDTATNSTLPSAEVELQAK

One may read the EC50 as the midpoint of the concentration-response curve. `CSCC[C@@H](CC(=O)N[C@H](C(=O)N[C@H](CCSC)C(N)=O)C(C)C)NC(=O)[C@H](Cc1ccc(O)cc1)NC(=O)[C@H](CCCCN)NC(=O)[C@@H](N)Cc1c[nH]c2ccccc12` [WKYMβVm]: in series [1], the EC50 was 431 nM and the “increase in intracellular calcium ions through activation of FPR1 (in words)” value was “increase in calcium ions in a concentration-dependent manner was also observed”. For the same molecule, in series [2], the 50% effective concentration (EC50) came out at 14 nM and the “increase in intracellular calcium ions through activation of FPR2 (in words)” value was “increase in calcium ions in a concentration-dependent manner was observed”. Besides, the “superoxide anion production in neutrophils” value (“superoxide anion production” for short) in series [3] was “induce superoxide anion production very effectively to a similar extent as the WKYMVm peptide”. Also, the “degranulation activity of neutrophils” value in series [4] is “induced the degranulation activity of neutrophils very effectively to a similar extent as the WKYMVm peptide”. The “chemotactic migration of neutrophils” value in series [5] is “effectively induce chemotactic migration of neutrophils in a concentration-dependent manner”. Besides, the “degradation half-life / ex vivo stability compared to the WKYMVm peptide (in words)” value in series [6] is listed as “half-life similar to that of the WKYMVm peptide”. For the same molecule, in series [7], the “calcium ion-increasing effect in neutrophils” value (from here on “calcium ion-increasing effect”) was “highly induced”.

As to `CSCC[C@H](NC(=O)C[C@H](Cc1ccc(O)cc1)NC(=O)[C@H](CCCCN)NC(=O)[C@@H](N)Cc1c[nH]c2ccccc12)C(=O)N[C@H](C(=O)N[C@H](CCSC)C(N)=O)C(C)C` [WKYβMVm], in series [1], the EC50 worked out at 754 nM and the “increase in intracellular calcium ions through activation of FPR1 (in words)” value was “increase in calcium ions in a concentration-dependent manner was also observed”. Moreover, in series [2], the EC50 amounted to 13.9 nM and the “increase in intracellular calcium ions through activation of FPR2 (in words)” value is on record as “increase in calcium ions in a concentration-dependent manner was observed”. Moreover, the “superoxide anion production” value in series [3] is “induce superoxide anion production very effectively to a similar extent as the WKYMVm peptide”. Besides, the “degranulation activity of neutrophils” value in series [4] is “induced the degranulation activity of neutrophils very effectively to a similar extent as the WKYMVm peptide”. Moreover, in series [5], the “chemotactic migration of neutrophils” value is “effectively induce chemotactic migration of neutrophils in a concentration-dependent manner”. For the same molecule, the “degradation half-life / ex vivo stability compared to the WKYMVm peptide (in words)” value in series [6] is on record as “half-life similar to that of the WKYMVm peptide”. The “calcium ion-increasing effect” value in series [7] is given as “highly induced”.

Regarding `CSCC[C@H](NC(=O)[C@H](Cc1ccc(O)cc1)NC(=O)C[C@H](CCCCN)NC(=O)[C@@H](N)Cc1c[nH]c2ccccc12)C(=O)N[C@H](C(=O)N[C@H](CCSC)C(N)=O)C(C)C` [WKβYMVm], in series [1], the EC50 worked out at 261 nM and the “increase in intracellular calcium ions through activation of FPR1 (in words)” value was “increase in intracellular calcium ions was induced”. Also, in series [2], the “increase in intracellular calcium ions through activation of FPR2 (in words)” value was “increase in calcium ions in a concentration-dependent manner was observed”. Moreover, in series [3], the “superoxide anion production” value is given as “induce superoxide anion production very effectively to a similar extent as the WKYMVm peptide”. For the same molecule, in series [4], the “degranulation activity of neutrophils” value is reported as “induced the degranulation activity of neutrophils very effectively to a similar extent as the WKYMVm peptide”. In addition, the “chemotactic migration of neutrophils” value in series [5] was “effectively induce chemotactic migration of neutrophils in a concentration-dependent manner”. Besides, the “half-life increase compared to the WKYMVm peptide” value in series [6] is “about 1.9 times”. Also, the “calcium ion-increasing effect” value in series [7] is “highly induced”.

Consider `CSCC[C@H](NC(=O)C[C@H](Cc1ccc(O)cc1)NC(=O)C[C@H](CCCCN)NC(=O)[C@@H](N)Cc1c[nH]c2ccccc12)C(=O)N[C@H](C(=O)N[C@H](CCSC)C(N)=O)C(C)C` [WKβYβMVm], for which, in series [1], the EC50 amounted to 2440 nM and the “increase in intracellular calcium ions through activation of FPR1 (in words)” value was “activated”. Further, in series [2], the EC50 came out at 77.3 nM and the “increase in intracellular calcium ions through activation of FPR2 (in words)” value is “activated”. In addition, in series [3], the “superoxide anion production” value is on record as “effectively promoted superoxide anion production”. Also, in series [4], the “degranulation activity of neutrophils” value is given as “effectively promoted the degranulation activity of neutrophils”. Moreover, in series [5], the “effect of enhancing neutrophil mobility, compared with the WKYMVm peptide” value is “slight decrease in activity”. Moreover, in series [7], the “calcium ion-increasing effect” value was “highly induced”.
